Test results reported in publication PMC6220303 (EMBO Molecular Medicine, 2018).
Each block holds one molecule with its values, some of them ahead of it.

Tests used:
CatD = system: CatD; design: method as in Fielden et al, 2015; details: ref Fielden et al, 2015; cited from earlier work
rat = system: rat; design: method as in May et al, 2011; Fielden et al, 2015; details: ref May et al, 2011; Fielden et al, 2015; cited from earlier work
C57/BL6 mice = test: Hair depigmentation study, 8 weeks dosing; format: in vivo, mouse; details: for % Aβ40 in brain relative to vehicle alone: steady state
APP‐transgenic mice = system: APP‐transgenic mice; design: method as in Beckmann et al, 2016; Villarreal et al, 2017; details: ref Beckmann et al, 2016; Villarreal et al, 2017; cited from earlier work

Structure (SMILES): CC1(C#Cc2cnc3c(c2)[C@]2(COC(N)=N2)c2cc(-c4cccnc4F)ccc2O3)COC1 [AMG‐8718]
CatD selectivity in vitro (CatD): > 3,000 fold | retinal pathology in the rat (rat): retinal degeneration

Structure (SMILES): C[C@@]1(c2cc(-c3cncnc3)c(F)cc2F)CCSC(N)=N1 [LY2811376]
retinal pathology in the rat (rat): retinal degeneration

start of hair depigmentation (C57/BL6 mice; C57/BL6 mice): 2–3 weeks | hair depigmentation / change in hair color (C57/BL6 mice; male C57/BL6 mice, 8 weeks oral once daily): obvious hair depigmentation in all mice
Structure (SMILES): Cc1cc(C#N)cnc1C(=O)Nc1ccc(F)c([C@]2(C)CO[C@@](C)(C(F)(F)F)C(N)=N2)c1 [NB‐360]
% Aβ40 in brain relative to vehicle alone (C57/BL6 mice; Dose 9 mg/kg): 66% | % Aβ40 in brain relative to vehicle alone (C57/BL6 mice; Dose 45 mg/kg): 32% | CMH events (APP‐transgenic mice): No CMH events were observed

Structure (SMILES): CN1C(=N)N[C@](C)(c2cc(NC(=O)c3ccc(F)cn3)ccc2F)CS1(=O)=O [verubecestat]
CMH events (APP‐transgenic mice): No CMH events were observed
